In assay [1] the test system is CHO-K1. Put plainly: benchmark concentration for 60% increase in hypodiploid frequency (BMC60); higher = less potent aneugen. As to the method:
(§1)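 Benchmark concentration modelling (PROAST, Hill/exponential model families) of the 19-concentration flow-cytometric micronucleus assay in CHO-K1 cells, with and without rat liver S9. Only non-cytotoxic and adequate (relative survival >=40%) concentrations were used. BMR was a 30% increase in %MN (BMC30) or a 60% increase in %hypodiploid (BMC60) over control.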

Assay [2] concerns CHO-K1. Put plainly: benchmark concentration for 30% increase in micronucleus frequency (BMC30); higher = less potent clastogen. The protocol:
as §1

Setting [3] is: S9 metabolic activation: without S9.
Where [4] appears, read: S9 metabolic activation: with S9.

Counter-ions that a name gives are not always drawn.

As for `CCCCCCCC1CCC(=O)O1` (configuration not stated) [5-Heptyldihydro-2(3H)-furanone], the benchmark concentration in assay [1] (setting [3]) is 79 µM; in assay [2] (setting [3]) it was 75 µM.

Regarding `C[C@]12CC[C@@H]3c4ccc(O)cc4CC[C@H]3[C@@H]1CC[C@@H]2O` [17beta-Estradiol], the benchmark concentration in assay [1] (setting [3]) worked out at 9.9 µM; in assay [2] (setting [3]), 8.1 µM.

As to `Cc1cccc2ccccc12` [1-Methylnaphthalene], the benchmark concentration in assay [1] (setting [3]) worked out at 110 µM; in assay [2] (setting [3]) it was 57 µM.

Consider `Nc1ccn([C@@H]2O[C@H](CO)[C@@H](O)[C@@H]2O)c(=O)n1` [Cytarabine hydrochloride], for which the figures for the benchmark concentration in assay [1] (setting [4]) and in assay [2] (setting [4]) were 27 µM and 5.9 µM, respectively.

As for `Nc1ccc2ccccc2c1` [2-Naphthylamine], the benchmark concentration in assay [1] (setting [4]) amounted to 43 µM; in assay [1] (setting [3]) it was 47 µM; in assay [2] (setting [3]), 51 µM.

`Nc1ccc(-c2ccc(N)cc2)cc1` [Benzidine]: the benchmark concentration in assay [1] (setting [3]) and in assay [2] (setting [3]) was 18 µM throughout.

Consider `CC(C)(c1cc(Br)c(O)c(Br)c1)c1cc(Br)c(O)c(Br)c1` [3,3',5,5'-Tetrabromobisphenol A], for which the benchmark concentration in assay [1] (setting [4]) worked out at 28 µM; in assay [1] (setting [3]), 37 µM; in assay [2] (setting [3]), 44 µM.

As to `Cc1ccc(O)cc1` [p-Cresol], the benchmark concentration was 79 µM in assay [1] (setting [3]) and 73 µM in assay [2] (setting [3]).

For the compound `Cc1ccc(O)cc1C` [3,4-Dimethylphenol], the benchmark concentration in assay [1] (setting [3]) was found to be 74 µM; in assay [2] (setting [3]), 120 µM.

As for `C=CC(=O)NCNC(=O)C=C` [N,N'-Methylenebisacrylamide], the benchmark concentration in assay [1] (setting [3]) was 62 µM; in assay [2] (setting [3]) it was 44 µM.

Take `ClC1=C(Cl)C2(Cl)C3C4OC4C(Cl)C3C1(Cl)C2(Cl)Cl` (configuration not stated) [Heptachlor epoxide]: the benchmark concentration in assay [1] (setting [3]) was 28 µM; in assay [2] (setting [4]) it was 45 µM; in assay [2] (setting [3]), 25 µM.

For `CC(=O)OC1CC(C)OC(C)O1` (configuration not stated) [Dimethoxane], the benchmark concentration in assay [1] (setting [4]) was found to be 59 µM; in assay [2] (setting [4]) it was 86 µM; in assay [2] (setting [3]), 30 µM.

With `c1ccc2c(c1)Nc1ccccc1S2` [Phenothiazine], the benchmark concentration in assay [1] (setting [4]) turned out to be 25 µM; in assay [2] (setting [4]), 17 µM.

For `Nc1ccc(Nc2ccccc2)cc1` [N-Phenyl-1,4-benzenediamine], the figures for the benchmark concentration in assay [1] (setting [3]) and in assay [2] (setting [4]) were < 4.5 µM and 87 µM, respectively.

`ClC1=C(Cl)C(Cl)(Cl)C(Cl)=C1Cl` [Hexachlorocyclopentadiene]: the benchmark concentration in assay [2] (setting [4]) is 23 µM; in assay [2] (setting [3]), < 4.5 µM.

Turning to `O=c1[nH]cnc2c1ncn2[C@H]1CC[C@@H](CO)O1` [2',3'-Dideoxyinosine], the benchmark concentration in assay [2] (setting [3]) stood at 84 µM.

In assay [2] (setting [4]), `CCCOC(=O)c1ccc(O)cc1` [Propylparaben] showed a benchmark concentration of 37 µM.

As to `Oc1cccc2cccnc12` [8-Hydroxyquinoline], the figures for the benchmark concentration in assay [2] (setting [4]) and in assay [2] (setting [3]) were 16 µM and 26 µM, respectively.

`CC(N)=O` [Acetamide] gave a benchmark concentration in assay [2] (setting [3]) of 5.8 µM.

Compound `CCOC(N)=O` [Urethane] came in with a benchmark concentration in assay [2] (setting [4]) of 32 µM.

Compound `O=P1(N(CCCl)CCCl)NCCCO1` (configuration not stated) [Cyclophosphamide monohydrate] displayed a benchmark concentration in assay [2] (setting [3]) of 91 µM.

With `O=Cc1ccco1` [Furfural], the benchmark concentration in assay [2] (setting [3]) worked out at 130 µM.

Consider `O=c1[nH]sc2ccccc12` [1,2-Benzisothiazolin-3-one], for which, in assay [2] (setting [4]), the benchmark concentration is 32 µM.

In turn, `CCCN(CCC)N=O` [N-Nitrosodipropylamine] came in with a benchmark concentration in assay [2] (setting [4]) of 20 µM.

With `CS(=O)(=O)OCCCCOS(C)(=O)=O` [Busulfan], in assay [2] (setting [3]), the benchmark concentration is 19 µM.

The compound `O=C(O)c1cc(/N=N/c2ccc(S(=O)(=O)Nc3ccccn3)cc2)ccc1O` [Sulfasalazine] had a benchmark concentration in assay [2] (setting [3]) of 65 µM.

In assay [2] (setting [3]), `CCC(C)c1cc([N+](=O)[O-])cc([N+](=O)[O-])c1O` (configuration not stated) [Dinoseb] came in with a benchmark concentration of 49 µM.
